Where only a bound is given, the exact number is not on record here.

For this assay, the target named is hMC2 receptor (Homo sapiens, UniProt Q01718). Put plainly: hMC2 membrane binding assay ([125I]ACTH (1-39) Tyr23, SPA). The arrangement: scale not given here. To be noted: crude hMC2R membranes from CRE-bla-CHO-K1 cells expressing hMC2 receptor and hMRAP; [125I]ACTH (1-39) Tyr23 0.2 nM; 1.5 hours at room temperature; read-out: MC2R binding potency. In short, it runs like this: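 CRE-bla-CHO-K1 membranes co-expressing hMC2 receptor and hMRAP, preincubated with WGA PVT SPA beads in pH 7.4 HEPES/MgCl2/CaCl2/0.2% BSA buffer. Compounds (typically 0–10,000 nM final) compete with 0.2 nM [125I]ACTH(1-39) Tyr23 for 1.5 h at room temperature. SPA counts give Ki by non-linear regression.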
Sequence of hMC2 receptor (Q01718 whole entry): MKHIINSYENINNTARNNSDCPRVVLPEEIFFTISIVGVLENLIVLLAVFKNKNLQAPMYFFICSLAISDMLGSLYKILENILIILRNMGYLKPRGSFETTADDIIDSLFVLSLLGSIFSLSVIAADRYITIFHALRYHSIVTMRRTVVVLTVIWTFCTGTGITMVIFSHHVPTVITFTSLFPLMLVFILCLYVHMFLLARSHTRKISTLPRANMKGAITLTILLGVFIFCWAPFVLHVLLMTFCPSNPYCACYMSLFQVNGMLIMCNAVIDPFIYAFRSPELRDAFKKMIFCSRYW
Sequence of hMC2 receptor (Q8TCY5 whole entry partner): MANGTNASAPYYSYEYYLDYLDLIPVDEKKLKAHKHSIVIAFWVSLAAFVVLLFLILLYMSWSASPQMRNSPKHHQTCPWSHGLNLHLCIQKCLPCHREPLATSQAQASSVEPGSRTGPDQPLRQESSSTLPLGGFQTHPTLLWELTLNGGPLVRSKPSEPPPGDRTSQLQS
Turning to `CCOc1ncccc1-c1ccc(N2CCN(C(=O)N3CCc4cccc(C#N)c43)C[C@H]2CC)c(C(=O)N[C@@H]2CCNC2)n1` [Compound 1-365, 5-[(2R)-4-(7-cyano-2,3-dihydro-1H-indole-1-carbonyl)-2-ethylpiperazin-1-yl]-2′-ethoxy-N-[(3R)-pyrrolidin-3-yl]-[2,3′-bipyridine]-6-carboxamide], the Ki was < 10 nM. On to `CCOc1ncccc1-c1ccc(N2CCN(C(=O)N3CCc4cccc(C#N)c43)C[C@H]2CC)c(C(=O)N[C@@H]2CCN(C)C2)n1` [Compound 1-383, 5-[(2R)-4-(7-cyano-2,3-dihydro-1H-indole-1-carbonyl)-2-ethylpiperazin-1-yl]-2′-ethoxy-N-[(3R)-1-methylpyrrolidin-3-yl]-[2,3′-bipyridine]-6-carboxamide], for which the Ki was < 10 nM. As for `CCOc1ncccc1-c1ccc(N2CCN(C(=O)C3(C(F)(F)F)CCCC3)C[C@H]2CC)c(C(=O)NC[C@@H]2CCN2C)n1` [Compound 1-331, 2′-ethoxy-5-[(2R)-2-ethyl-4-[1-(trifluoromethyl)cyclopentanecarbonyl]piperazin-1-yl]-N-{[(2S)-1-methylazetidin-2-yl]methyl}-[2,3′-bipyridine]-6-carboxamide], the Ki was < 10 nM. In the case of `CCOc1ncccc1-c1ccc(N2CCN(C(=O)c3ccc(Cl)cc3C(F)F)C[C@H]2CC)c(C(=O)N[C@@H]2CCN(C)C2)n1` [Compound 1-262, 5-[(2R)-4-[4-chloro-2-(difluoromethyl)benzoyl]-2-ethylpiperazin-1-yl]-2′-ethoxy-N-[(3R)-1-methylpyrrolidin-3-yl]-[2,3′-bipyridine]-6-carboxamide], the Ki is < 10 nM. For `CCOc1ncccc1-c1ccc(N2CCN(C(=O)c3ccc(OC)cc3C(F)(F)F)C[C@H]2CC)c(C(=O)NC2CNC2)c1F` [Compound 1-202, N-(azetidin-3-yl)-3-(2-ethoxypyridin-3-yl)-6-[(2R)-2-ethyl-4-[4-methoxy-2-(trifluoromethyl)benzoyl]piperazin-1-yl]-2-fluorobenzamide], the Ki was < 10 nM. Consider `CCOc1ncccc1-c1ccc(N2CCN(C(=O)C34CCC(C(F)(F)F)(CC3)C4)C[C@H]2CC)c(C(=O)NC2CN(C)C2)n1` [Compound 1-394, 2′-ethoxy-5-[(2R)-2-ethyl-4-[4-(trifluoromethyl)bicyclo[2.2.1]heptane-1-carbonyl]piperazin-1-yl]-N-(1-methylazetidin-3-yl)-[2,3′-bipyridine]-6-carboxamide], for which the Ki was < 10 nM. For the molecule `CCOc1ncccc1-c1ccc(N2CCN(C(=O)c3ccc(Cl)cc3C(F)(F)F)C[C@H]2CC)c(C(=O)NCCc2nccn2C)n1` [Compound 1-234, 5-[(2R)-4-[4-chloro-2-(trifluoromethyl)benzoyl]-2-ethylpiperazin-1-yl]-2′-ethoxy-N-[2-(1-methyl-1H-imidazol-2-yl)ethyl]-[2,3′-bipyridine]-6-carboxamide], the Ki is < 10 nM.

As for `CCOc1ncccc1-c1ccc(N2CCN(C(=O)c3ccc(Cl)cc3C(F)(F)F)C[C@H]2CC)c(C(=O)NC[C@H]2CCN2C)c1` [Compound 1-228, 2-[(2R)-4-[4-chloro-2-(trifluoromethyl)benzoyl]-2-ethylpiperazin-1-yl]-5-(2-ethoxypyridin-3-yl)-N-{[(2R)-1-methylazetidin-2-yl]methyl}benzamide], the Ki was < 10 nM. Regarding `CCOc1ncccc1-c1ccc(N2CCN(C(=O)[C@H]3CC[C@@H](C(F)(F)F)CC3)C[C@H]2CC)c(C(=O)N[C@@H]2CCN(C)C2)n1` [Compound 1-286, 2′-ethoxy-5-[(2R)-2-ethyl-4-[cis-4-(trifluoromethyl)cyclohexanecarbonyl]piperazin-1-yl]-N-[(3R)-1-methylpyrrolidin-3-yl]-[2,3′-bipyridine]-6-carboxamide], the Ki was < 10 nM. Consider `CCOc1ccccc1-c1ccc(N2CCN(C(=O)C3(C(F)F)CCCC3)C[C@H]2CC)c(C(=O)N[C@@H]2CCN(C)C2)n1` [Compound 1-417, 3-[(2R)-4-[1-(difluoromethyl)cyclopentanecarbonyl]-2-ethylpiperazin-1-yl]-6-(2-ethoxyphenyl)-N-[(3R)-1-methylpyrrolidin-3-yl]pyridine-2-carboxamide], for which the Ki was < 10 nM. The value for `CCOc1ccccc1-c1ccc(N2CCN(C(=O)N3CCCC3C(C)(C)C)C[C@H]2CC)c(C(=O)N[C@@H]2CCNC2)n1` (stereo partly drawn) [Compound 1-305, 3-[(2R)-4-(2-tert-butylpyrrolidine-1-carbonyl)-2-ethylpiperazin-1-yl]-6-(2-ethoxyphenyl)-N-[(3R)-pyrrolidin-3-yl]pyridine-2-carboxamide] was < 10 nM; that for `CCOc1ncccc1-c1ccc(N2CCN(C(=O)C34CCC(CC3)C4(C)C)C[C@H]2CC)c(C(=O)N[C@@H]2CCNC2)n1` [Compound 1-314, 5-[(2R)-4-{7,7-dimethylbicyclo[2.2.1]heptane-1-carbonyl}-2-ethylpiperazin-1-yl]-2′-ethoxy-N-[(3R)-pyrrolidin-3-yl]-[2,3′-bipyridine]-6-carboxamide] was < 10 nM. On to `CCOc1ccccc1-c1ccc(N2CCN(C(=O)n3ccc4cccc(C#N)c43)C[C@H]2CC)c(C(=O)N[C@@H]2CCN(C)C2)n1` [Compound 1-432, 3-[(2R)-4-(7-cyano-1H-indole-1-carbonyl)-2-ethylpiperazin-1-yl]-6-(2-ethoxyphenyl)-N-[(3R)-1-methylpyrrolidin-3-yl]pyridine-2-carboxamide], for which the Ki was < 10 nM. Take `CCOc1ccccc1-c1ccc(N2CCN(C(=O)c3ccc(F)cc3-c3ccc(CN)cc3)C[C@H]2CC)c(C(=O)NCCN)c1` [Compound 1-17, N-(2-aminoethyl)-4-[(2R)-4-[4′-(aminomethyl)-5-fluoro-[1,1′-biphenyl]-2-carbonyl]-2-ethylpiperazin-1-yl]-2′-ethoxy-[1,1′-biphenyl]-3-carboxamide]: the Ki is < 10 nM. The value for `CCOc1ncccc1-c1ccc(N2CCN(C(=O)c3ccc(Cl)cc3C(F)(F)F)C[C@H]2CC)c(C(=O)NCCN(C)C)n1` [Compound 1-150, 5-[(2R)-4-[4-chloro-2-(trifluoromethyl)benzoyl]-2-ethylpiperazin-1-yl]-N-[2-(dimethylamino)ethyl]-2′-ethoxy-[2,3′-bipyridine]-6-carboxamide Acetate] was < 10 nM; that for `CCOc1ncccc1-c1ccc(N2CCN(C(=O)c3ccc(Cl)cc3C(F)(F)F)C[C@H]2CC)c(C(=O)N[C@@H]2CCNC2)n1` [Compound 1-151, 5-[(2R)-4-[4-chloro-2-(trifluoromethyl)benzoyl]-2-ethylpiperazin-1-yl]-2′-ethoxy-N-[(3R)-pyrrolidin-3-yl]-[2,3′-bipyridine]-6-carboxamide] was < 10 nM. Next, `CCOc1ncccc1-c1ccc(N2CCN(C(=O)c3ccc(Cl)cc3N3CC[C@H](N)C3)C[C@H]2CC)c(C(=O)NCCN)c1` [Compound 1-57, N-(2-aminoethyl)-2-[(2R)-4-{2-[(3S)-3-aminopyrrolidin-1-yl]-4-chlorobenzoyl}-2-ethylpiperazin-1-yl]-5-(2-ethoxypyridin-3-yl)benzamide]: < 10 nM; `CCOc1ncccc1-c1ccc(N2CCN(C(=O)c3ccc(Cl)cc3C(F)F)C[C@H]2CC)c(C(=O)N[C@@H]2CCNC2)n1` [Compound 1-265, 5-[(2R)-4-[4-chloro-2-(difluoromethyl)benzoyl]-2-ethylpiperazin-1-yl]-2′-ethoxy-N-[(3R)-pyrrolidin-3-yl]-[2,3′-bipyridine]-6-carboxamide]: < 10 nM; `CCOc1ncccc1-c1ccc(N2CCN(C(=O)c3ccc(Cl)cc3C(F)(F)F)C[C@H]2CC)c(C(=O)N[C@@H]2CCCNC2)c1` [Compound 1-99, 2-[(2R)-4-[4-chloro-2-(trifluoromethyl)benzoyl]-2-ethylpiperazin-1-yl]-5-(2-ethoxypyridin-3-yl)-N-[(3R)-piperidin-3-yl]benzamide]: < 10 nM. As for `CCOc1ncccc1-c1ccc(N2CCN(C(=O)C3(C(F)(F)F)CCC3)C[C@H]2CC)c(C(=O)N[C@@H]2CCN(C)C2)n1` [Compound 1-283, 2′-ethoxy-5-[(2R)-2-ethyl-4-[1-(trifluoromethyl)cyclobutanecarbonyl]piperazin-1-yl]-N-[(3R)-1-methylpyrrolidin-3-yl]-[2,3′-bipyridine]-6-carboxamide], the Ki is < 10 nM. Take `CCOc1ccccc1-c1ccc(N2CCN(C(=O)c3ccc(Cl)cc3C(F)(F)F)C[C@H]2CC)c(C(=O)NCCNC)n1` [Compound 1-208, 3-[(2R)-4-[4-chloro-2-(trifluoromethyl)benzoyl]-2-ethylpiperazin-1-yl]-6-(2-ethoxyphenyl)-N-[2-(methylamino)ethyl]pyridine-2-carboxamide]: the Ki was < 10 nM. For the molecule `CCOc1ccc(C(=O)N2CCN(c3ccc(-c4cccnc4OCC)nc3C(=O)NCCN(C)C)[C@H](CC)C2)c(C(F)(F)F)n1` [Compound 1-207, N-[2-(dimethylamino)ethyl]-2′-ethoxy-5-[(2R)-4-[6-ethoxy-2-(trifluoromethyl)pyridine-3-carbonyl]-2-ethylpiperazin-1-yl]-[2,3′-bipyridine]-6-carboxamide], the Ki was < 10 nM. As for `CCOc1ncccc1-c1ccc(N2CCN(C(=O)c3ccc(Cl)cc3Cl)C[C@H]2CC)c(C(=O)NCCN)c1` [Compound 1-42, N-(2-aminoethyl)-2-[(2R)-4-(2,4-dichlorobenzoyl)-2-ethylpiperazin-1-yl]-5-(2-ethoxypyridin-3-yl)benzamide], the Ki is < 10 nM.

Take `CCOc1ncccc1-c1ccc(N2CCN(C(=O)C3(c4ccccc4)CCC3)C[C@H]2CC)c(C(=O)N[C@@H]2CCNC2)n1` [Compound 1-353, 2′-ethoxy-5-[(2R)-2-ethyl-4-(1-phenylcyclobutanecarbonyl)piperazin-1-yl]-N-[(3R)-pyrrolidin-3-yl]-[2,3′-bipyridine]-6-carboxamide]: the Ki is < 10 nM.

The values above are taken from US10981894B2, “Melanocortin subtype-2 receptor (MC2R) antagonists and uses thereof” (Crinetics Pharmaceuticals, Inc., priority 2018, dated 2021).
